Measurements published in patent US20160368992A1, “A METHOD OF INCREASING GIPCR SIGNALIZATION IN THE CELLS OF A SCOLIOTIC SUBJECT” (CHU SAINTE-JUSTINE, priority 2013, published 2016).
Entries after “also recorded” stand apart in the source; their conditions may differ. Like-named read-outs stand apart in the source and are kept apart here.

Key:
GiPCR signaling [1] = assay: CDS (CellKey) functional evaluation of Gi protein-mediated receptor signaling in primary mouse osteoblasts; format: cell-based, mice
Gi1, Gi2, Gi3 proteins = assay: Immunoprecipitation/Western blot: phosphorylation of Gi proteins in MC3T3-E1 cells; format: cell-based; details: MC3T3-E1 treated with rOPN in presence of kinase inhibitor
Protocol: Given that the defective GiPCR signaling associated with idiopathic scoliosis has causatively been related to increased phosphorylation of Gi proteins (Moreau et al., 2004), it was of interest to examined whether OPN influences the phosphorylation status of Gi proteins. Accordingly, MC3T3-E1 cells were treated with rOPN, then cell lysates were immunoprecipitated with antibodies against Gi1, Gi2 or Gi3 protein isoforms, and the phosphorylation level was examined by Western blot using anti-phospho serine/threonine or anti-tyrosine antibodies. […] However, band density was higher in OPN-treated cells.
To support the involvement of α5β1 integrin in this process, cells were pre-treated with antibody against α5β1 integrin prior to rOPN treatment.
Cell extracts prepared from MC3T3-E1 that had been treated with rOPN in the presence or absence of an inhibitor specific for each kinase were subjected to immunoprecipitation and Western blot analysis. […] However, both serine and tyrosine phosphorylation were attenuated by inhibitors of FAK (FAK inhibitor-14), Scr (PP2), CaMKII (KN93), PI3K (wortmannin-data not shown), MEK (PD98059), ERK1/2 (FR180204), JNK (SP60125) and P38 (SB203580).

GsPCR signaling = assay: CDS response to GsPCR stimulation (isoproterenol, desmopressin) in MC3T3-E1 cells; format: cell-based; details: rOPN in combination with Src inhibitor; isoproterenol, similar with desmopressin
From the text: Taken into account these considerations and having observed that genetic deletion of OPN inversely influenced response to Gi and Gs stimulation (FIG. 1), it was of interest to examine the effect of OPN on the functional and phosphorylation status of Gs protein and on its interaction with receptors. For this purpose, cells were subjected to isoproterenol and desmopressin in the presence of rOPN or PBS. As expected, response to isoproterenol was higher in rOPN than in PBS-treated cells.
Assuming that inhibition of Gi protein and phosphorylation of Gs protein are responsible for the increased GsPCR signaling associated with rOPN, the next experiments aimed to determine the contribution of each parameter. For this purpose, cells were treated with PTX to mimic disruption action of rOPN and compared to cells treated with rOPN alone or in combination with Src inhibitor (PP2) to prevent tyrosine phosphorylation. […] This modest difference was abolished by Src inhibitor (PP2). Similar observations were noted when cells were stimulated with desmopressin.

GiPCR signaling [2] = assay: CDS integrated response to GiPCR ligands in MC3T3-E1 osteoblastic cell line; format: cell-based; details: for response in the presence of rOPN after siRNA transfection: MC3T3-E1, compared with untreated cells
Protocol: The functional evaluation of Gi, Gs and Gq proteins was assessed by CDS assays using osteoblasts cells derived from C57Bl/6j WT and C57Bl/6j OPN^−/− mice (bipedal and quadrupedal) using CellKey™ apparatus, as previously described (Akoume et al., 2010, and WO 2010/040234 to Moreau et al.).
MC3T3-E1 cells were used to check the effect of the knockdown of OPN and its receptors. MC3T3-E1 osteoblasts cells were transiently transfected in serum-free medium, using Lipofectamine™ RNAiMAX reagent (Invitrogen) according to the manufacturer's instructions and functional experiments were performed 48 h post transfection. The sequence of RNA oligonucleotides used for the knockdown of different genes are, ssp1 (encodes OPN) (CCACAGCCACAAGCAGUCCAGAUUA (SEQ ID NO: 9)), integrin β1 (CCUAAGUCAGCAGUAGGAACAUUAU (SEQ ID NO: 10)), integrin β3 (CCUCCAGCUCAUUGUUGAUGCUUAU (SEQ ID NO: 11)), integrin α5 (CCGAGUACCUGAUCAACCUGGUUCA (SEQ ID NO: 12)), integrin α8 (GAGAUGAAACUGAAUUCCGAGAUAA (SEQ ID NO: 13)), integrin αv (GACUGUUGAGUAUGCUCCAUGUAGA (SEQ ID NO: 14 and CD44 (GAACAAGGAGUCGUCAGAAACUCCA (SEQ ID NO: 15)). Two other siRNAs against integrin α5 were tested (UCCACCAUGUCUAUGAGCUCAUCAA (SEQ ID NO:16) and UCAGGAGCAGAUUGCAGAAUCUUAU (SEQ ID NO:17)).
To further investigate the role of OPN in Gi protein-mediated receptor signaling, several lines of experiments were performed using MC3T3-E1 osteoblastic cell line. Since these cells express OPN, was first examined whether depletion of OPN by siRNA influences the capacity of GiPCR ligands to induce cell signaling as measured by CDS in MC3T3-E1 cells. […] Similar results were obtained when cells were stimulated with oxymethazolin. […] To confirm this hypothesis, cells were treated with exogenous recombinant OPN (rOPN) prior to DAMGO and oxymethazolin stimulation.

[3] = target: RGD-dependent integrins expressed in osteoblasts; assay: cell-based or functional assay
[4] = osteoblasts from WT and OPN-/- mice, increasing agonist concentration

Compound	level of serine phosphorylation in the Gi protein precipitates (Gi1, Gi2, Gi3 proteins)	tyrosine phosphorylation levels in the Gi protein precipitates (Gi1, Gi2, Gi3 proteins)	further results
C[C@@H](NC(=O)[C@@H](N)Cc1ccc(O)cc1)C(=O)NCC(=O)N(C)[C@@H](Cc1ccccc1)C(=O)NCCO [DAMGO]			response to GiPCR agonist (GiPCR signaling [1]; [4]): concentration-dependent increase of response
Nc1cc(N)c(N)cc1N [FAK inhibitor-14]	attenuated	attenuated	
Nc1[nH]nc2nnc(-c3c(-c4ccccc4)nn4ccccc34)cc12 [FR180204]	attenuated	attenuated	
COc1ccc2c(c1)c(C1=C(c3c[nH]c4ccccc34)C(=O)NC1=O)cn2CCCN(C)C [Gö6983]	attenuated	without effect	
COc1ccc(S(=O)(=O)N(CCO)c2ccccc2CN(C)C/C=C/c2ccc(Cl)cc2)cc1 [KN93]	attenuated	attenuated	
COc1cccc(-c2cc(=O)c3ccccc3o2)c1N [PD98059]	attenuated	attenuated	
CC(C)(C)n1nc(-c2ccc(Cl)cc2)c2c(N)ncnc21 [PP2]	attenuated	attenuated	difference in response between rOPN-treated and PTX-treated cells (GsPCR signaling): abolished
C[S+]([O-])c1ccc(-c2nc(-c3ccncc3)c(-c3ccc(F)cc3)[nH]2)cc1 (centres unmarked) [SB203580]	attenuated	attenuated	
O=C1c2ccccc2-c2n[nH]c3cccc1c23 [SP60125]	attenuated	attenuated	
Cc1cc(C(C)(C)C)c(O)c(C)c1CC1=NCCN1 [oxymethazolin]			response to GiPCR agonist (GiPCR signaling [1]; [4]): concentration-dependent increase of response
CD44 siRNA: siRNA for knockdown of CD44: GAACAAGGAGUCGUCAGAAACUCCA (guide GAACAAGGAGUCGUCAGAAACUCCA; listed as RNA, chemistry not given here)			effect on the inhibitory effect of rOPN on response to DAMGO and oxymethazolin (GiPCR signaling [2]; MC3T3-E1 cells, rOPN present): did not prevent; also recorded: further aggravated the defect
OPN siRNA: siRNA for knockdown of ssp1 (encodes OPN): CCACAGCCACAAGCAGUCCAGAUUA			integrated response to DAMGO and oxymethazolin (GiPCR signaling [2]; MC3T3-E1 cells, endogenous OPN depleted or blocked, no exogenous rOPN): significantly greater
RGD peptide			RGD concentration reversing the inhibitory effect of OPN on response to DAMGO and oxymethazolin (CDS) [3]: > 10 µg/mL
apelin			response to GiPCR agonist (GiPCR signaling [1]): concentration-dependent increase of response
hyaluronic acid [HA]			sensitivity of GiPCR signaling to CD44 inhibition (GiPCR signaling [1]; CD44-/- osteoblasts): does not show any sensitivity; GiPCR signaling defects (GiPCR signaling [1]; wild type osteoblasts, compared to the control): exacerbated; GiPCR signaling defect / inhibitory effect of OPN when CD44 is inhibited (GiPCR signaling [1]; wild type osteoblasts, in presence of rOPN): intensified; also recorded: exacerbate the signaling defect
pertussis toxin [PTX]			cellular responses to each of the four tested agonists after PTX pre-treatment (GiPCR signaling [1]; osteoblasts from WT and OPN-/- mice, DAMGO, somatostatin, oxymethazolin, apelin): largely reduced
α5 siRNA: siRNA against integrin α5: CCGAGUACCUGAUCAACCUGGUUCA; two others (SEQ ID NO:16, 17) also tested (guide CCGAGUACCUGAUCAACCUGGUUCA; listed as RNA, chemistry not given here)			response in the presence of rOPN after siRNA transfection (GiPCR signaling [2]): high response
β1 siRNA: siRNA against integrin β1: CCUAAGUCAGCAGUAGGAACAUUAU (guide CCUAAGUCAGCAGUAGGAACAUUAU; listed as RNA, chemistry not given here)			response in the presence of rOPN after siRNA transfection (GiPCR signaling [2]): high response
